These results are taken from article PMC5855875, “Teixobactin analogues reveal enduracididine to be non-essential for highly potent antibacterial activity and lipid II binding” (Chemical Science, 2017).

Molecules are shown by their SMILES. Converted amounts (≈) assume the structure as drawn. Bridge positions count the residues as written; N and C are the ends. Square brackets hold non-standard residues; d marks the D form. Peptide text beside a SMILES is read from it. d(aIle) = CC[C@H](C)[C@@H](N)C(=O)O; dNMeF = CN[C@H](Cc1ccccc1)C(=O)O

The subject of one test is MRSA ATCC 33591. The test is described as follows: microbe, parasite or virus in culture. On the procedure: were grown in Mueller Hinton broth (Oxoid) in triplicate. All incubations were at 37°C. Dilutions were carried out in triplicate. 100 µl of autoclaved Mueller Hinton broth was added to wells 2-12 in a 96-well plate. 200 µl of the peptide was added to well one at a concentration of 256 µg/mL. 100µl of peptide in well one was taken up and pipetted into well two. The mixture was then mixed via pipetting before 100µl was taken up and pipetted into well three. This process was repeated up to well 11. Once […]
peptide present. Thus, the concentrations (in µg/mL) were: 256, 128, 64, 32, 16, 8, 4, 2, 1, 0.5, 0.25 and no peptide present. Each well was then inoculated with 100µl of bacteria that had been diluted to an […]
This was repeated three times. The 96-well plates were then incubated at 37°C for 24 hours. The MIC was determined to be the lowest concentration at which there was no growth visible. […]
was repeated at an altered initial concentration of 64 µg/ml. Therefore, the new concentrations for MIC […]
(§1) VIII. MIC testing (extended panel)
(§2) Bacterial cultures were grown overnight i n Mueller-Hinton Agar (MHA) plates and adjusted to a final concentration of 10 5 – 106 CFU/ml. 100 µl of inoculum in Meuller -Hinton broth (MHB) was mixed with equal volume of peptides (dissolved in MHB) at 2x their concentration in a 96 well plate. In parallel experiments, MIC values were determined in the media containing polysorbate 80 (0 .002%, v/v) to […]

The next test deals with MRSA 1: MRSA ATCC 700699. Kind of test: microbe, parasite or virus in culture. On the procedure: as §1, §2
(§3) prevent non-specific adsorption of the peptides to plastic surfaces. The final peptides concentrations […]
(§4) Positive and negative controls contained 200 µl of inoculum without any peptide dissolved in broth, respectively. The 96 well plates were then incubated at 37 °C for 24 h.
(§5) All the experiments were performed in two independent duplicates and the MIC was determined as the […]
(§6) Minimum bactericidal concentration
(§7) The lowest concentration in which no visible colonies could be detected was taken as the MBC.
(§8) 80. Strain information: MRSA 1: MRSA ATCC 700699, MRSA 2: MRSA DR 42412 (sputum), MRSA
(§9) 3: MRSA DM21455 (eye). […] Staphylococcus aureus ATCC

Test [1] deals with MRSA 3: MRSA DM21455 (eye). Kind of test: microbe, parasite or virus in culture. On the procedure:
as §1, §2, §3, §4, §5, §6, §7, §8, §9

In test [2] the test system is Staphylococcus aureus ATCC 29213. The test is described as follows: microbe, parasite or virus in culture. On the procedure:
as §1, §2, §3, §4, §5, §6, §7, §8, §9

Test [3] relates to MRSA 2: MRSA DR 42412 (sputum). Kind of test: microbe, parasite or virus in culture. On the procedure: as §1, §2, §3
(§10) Positive and negative controls contained 200 µl of inoculum without any peptide dissolved in broth, respectively. The 96 well plates were then incubated at 37 °C for 24 h. […]
as §8, §9

In another test the test system is VRE 1: VRE ATCC 700802. The test is described as follows: organism not typed. On the procedure:
as §1, §2, §3, §10, §8, §9

Another test deals with VRE 2: VRE ATCC 29212. Kind of test: organism not typed. On the procedure:
as §1, §2, §3, §10, §8, §9

On to `CC[C@H](C)[C@H](NC(=O)[C@@H](Cc1ccccc1)NC)C(=O)N[C@@H](CO)C(=O)N[C@H](CCC(N)=O)C(=O)N[C@@H](C(=O)N[C@H](C(=O)N[C@@H](CO)C(=O)N[C@H]1C(=O)N[C@@H](C)C(=O)N[C@@H](C(C)C)C(=O)N[C@@H]([C@@H](C)CC)C(=O)O[C@H]1C)[C@@H](C)CC)[C@@H](C)CC` [Compound 11, Val10-teixobactin] (H-[dNMeF]IS[dQ][d(aIle)]IS[dT]AVI; ester 8-C), for which the MIC in the test on MRSA ATCC 33591 (ATCC 33591, 24 h) was determined as 0.5 μg mL^–1; with MRSA 1: MRSA ATCC 700699 (ATCC 700699, 24 h) it was 1 μg mL^–1; in test [1] (3: DM21455 (eye, 24 h)), 0.25 μg mL^–1; in test [3] (2: DR 42412 (sputum, 24 h)), 0.5 μg mL^–1; in the test with VRE 1: VRE ATCC 700802 (ATCC 700802, 24 h), 0.5 μg mL^–1; against VRE 2: VRE ATCC 29212 (ATCC 29212, 24 h), 0.5 μg mL^–1. Also, the “times better antibacterial activity than Arg10-teixobactin” value in the test on MRSA ATCC 33591 (from MIC against MRSA ATCC 33591) was found to be 4 times. Besides, the “MIC (without polysorbate 80)” value in the test on MRSA 1: MRSA ATCC 700699 (ATCC 700699, 24 h) worked out at 4 µg/mL (≈ 3.37 µM); in test [1] (3: DM21455 (eye, 24 h)), 4 µg/mL (≈ 3.37 µM); in test [2] (ATCC 29213, 24 h), 2 µg/mL (≈ 1.68 µM); in test [3] (2: DR 42412 (sputum, 24 h)), 2 µg/mL (≈ 1.68 µM); in the test with VRE 1: VRE ATCC 700802 (ATCC 700802, 24 h), 4 µg/mL (≈ 3.37 µM); in the test with VRE 2: VRE ATCC 29212 (ATCC 29212, 24 h), 4 µg/mL (≈ 3.37 µM). The MBC against MRSA 1: MRSA ATCC 700699 (MRSA 1 (MRSA ATCC 700699), plated on MHA, 37 °C, 24 h) came to 4 μg mL^–1; in test [1] (MRSA 3 (MRSA DM21455), plated on MHA, 37 °C, 24 h), 2 μg mL^–1; in test [2] (Staphylococcus aureus ATCC 29213, plated on MHA, 37 °C, 24 h), 1 μg mL^–1; in test [3] (MRSA 2 (MRSA DR 42412), plated on MHA, 37 °C, 24 h), 4 μg mL^–1. Moreover, the “MIC (with polysorbate 80)” value against MRSA 1: MRSA ATCC 700699 (MRSA 1, MHB containing polysorbate 80 (0.002%, v/v), 37 °C, 24 h, two independent duplicates) is given as 1 µg/mL (≈ 0.842 µM); in test [1] (MRSA 3, MHB containing polysorbate 80 (0.002%, v/v), 37 °C, 24 h) it was 0.25 µg/mL (≈ 0.211 µM); in test [2] (S. aureus ATCC 29213, MHB containing polysorbate 80 (0.002%, v/v), 37 °C, 24 h), 0.25 µg/mL (≈ 0.211 µM); in test [3] (MRSA 2, MHB containing polysorbate 80 (0.002%, v/v), 37 °C, 24 h) it was 0.5 µg/mL (≈ 0.421 µM); with VRE 1: VRE ATCC 700802 (VRE 1, MHB containing polysorbate 80 (0.002%, v/v), 37 °C, 24 h), 0.5 µg/mL (≈ 0.421 µM); in the test with VRE 2: VRE ATCC 29212 (VRE 2, MHB containing polysorbate 80 (0.002%, v/v), 37 °C, 24 h), 0.5 µg/mL (≈ 0.421 µM).
